Source: ChEMBL document CHEMBL5634120, “Natural phytoalexins inspired the discovery of new biphenyls as potent antifungal agents for treatment of invasive fungal infections” (Eur J Med Chem, 2023)
In brackets after ≈: the same amount, converted by molar mass. Activity calls are given as the source filed them. No cut-off for these calls is given here.

What was measured:
Cryptococcus neoformans [1] = assay: Antifungal activity against Cryptococcus neoformans ATCC32045 assessed as inhibition of fungal growth incubated for 72 hrs by broth microdilution method; type: functional
Candida tropicalis = assay: Antifungal activity against Candida tropicalis ATCC1369 assessed as inhibition of fungal growth incubated for 72 hrs by broth microdilution method; type: functional
Aspergillus fumigatus = assay: Antifungal activity against Aspergillus fumigatus AS3.3913 assessed as inhibition of fungal growth incubated for 72 hrs by broth microdilution method; type: functional
Candida albicans = assay: Antifungal activity against Candida albicans ATCC10231 assessed as inhibition of fungal growth incubated for 72 hrs by broth microdilution method; type: functional
Cryptococcus neoformans [2] = assay: Antibiofilm activity against Cryptococcus neoformans ATCC32045 assessed as inhibition of biofilm formation incubated for 24 hrs by XTT reduction assay; type: functional, organism-based; settings: dose 0.125-8 µg/ml
Cryptococcus neoformans [3] = assay: Antibiofilm activity against Cryptococcus neoformans ATCC32045 assessed as reduction in 24 hrs preformed biofilm at 1 ug/ml incubated for 24 hrs by XTT reduction assay relative to control; type: functional; parameters: scale not given: the % may be the effect or the level left; settings: dose 1 µg/ml
Cryptococcus neoformans [4] = assay: Disruption of 24 hrs preformed biofilm in Cryptococcus neoformans ATCC32045 incubated for 24 hrs by XTT reduction assay; type: functional, organism-based; settings: dose 0.125-8 µg/ml
[5] = Cytotoxicity against HUVEC cells assessed as inhibition of cell viability incubated for 24 hrs by CCK-8 assay; type: toxicity, cell-based; settings: human
Cryptococcus neoformans [6] = assay: Selectivity ratio of MFC for Cryptococcus neoformans ATCC32045 to MIC for Cryptococcus neoformans ATCC32045; type: functional
Cryptococcus neoformans [7] = assay: Fungicidal activity against Cryptococcus neoformans ATCC32045 assessed as reduction in viable colony count incubated for 12 hrs by time kill assay; type: functional, organism-based
Cryptococcus neoformans [8] = assay: Antifungal activity against Cryptococcus neoformans ATCC32045 assessed as inhibition of urease production at 2 ug/ml; type: functional, organism-based; settings: dose 2.0 µg/ml
Cryptococcus neoformans [9] = assay: Antifungal activity against Cryptococcus neoformans ATCC32045 assessed as inhibition of melanin production at 8 ug/ml; type: functional, organism-based; settings: dose 8.0 µg/ml
Cell membrane [10] = assay: Disruption of membrane integrity in Cryptococcus neoformans ATCC32045 assessed as red fluorescence at 2 ug/ml incubated for 4 hrs by PI staining based fluorescence microscopic analysis; type: subcellular; settings: dose 2.0 µg/ml
Cryptococcus neoformans [11] = assay: Antibiofilm activity against Cryptococcus neoformans ATCC32045 assessed as inhibition of biofilm formation at >=4 ug/ml incubated for 24 hrs by XTT reduction assay relative to control; type: functional; settings: dose >= 4 µg/ml
Cell membrane [12] = assay: Disruption of cell membrane in Cryptococcus neoformans ATCC32045 assessed as cell disintegration at 2 ug/ml incubated for 12 hrs by scanning electron microscopy analysis; type: subcellular; settings: dose 2.0 µg/ml
Cryptococcus neoformans [13] = assay: Fungicidal activity against Cryptococcus neoformans ATCC32045 incubated for 72 hrs; type: functional
Cell membrane [14] = assay: Disruption of cell membrane in Cryptococcus neoformans ATCC32045 assessed as cell shrinkage at 2 ug/ml incubated for 12 hrs by scanning electron microscopy analysis; type: subcellular; settings: dose 2.0 µg/ml
Cell membrane [15] = assay: Disruption of cell membrane in Cryptococcus neoformans ATCC32045 assessed as cell wrinkling at 2 ug/ml incubated for 12 hrs by scanning electron microscopy analysis; type: subcellular; settings: dose 2.0 µg/ml
Cell membrane [16] = assay: Disruption of membrane integrity in Cryptococcus neoformans ATCC32045 assessed as blue fluorescence at 2 ug/ml incubated for 4 hrs by DAPI staining based fluorescence microscopic analysis; type: subcellular; settings: dose 2.0 µg/ml
Cryptococcus neoformans [17] = assay: Fungicidal activity against Cryptococcus neoformans ATCC32045 assessed as reduction in viable colony counts at 0.5 to 1 ug/ml observed within 4 hrs by time kill assay (reference value: 6 log10CFU/ml); type: functional; settings: dose 0.5-1 µg/ml
[18] = Selectivity index, ratio of CC50 for HUVEC cells to MIC for antifungal activity against Cryptococcus neoformans ATCC32045; type: toxicity; settings: human, read-out: Selectivity Index

| Structure (SMILES) | MIC (Cryptococcus neoformans [1]) [µg/mL] | MIC (Candida tropicalis) [µg/mL] | MIC (Aspergillus fumigatus) [µg/mL] | MIC (Candida albicans) [µg/mL] | further results |
| --- | --- | --- | --- | --- | --- |
| COc1cc(-c2ccccc2)cc(OCc2ccccc2)c1OCc1ccccc1 | > 512 | > 512 | > 512 | > 512 | – |
| CCc1cc(CC)cc(-c2cc(O)c(O)c(OC)c2)c1 | 8 (≈ 29.4 µM) | 16 (≈ 58.7 µM) | 32 (≈ 117 µM) | 64 (≈ 235 µM) | – |
| COc1cc(-c2ccc(O)cc2)cc(O)c1O | > 512 | > 512 | > 512 | > 512 | – |
| COc1cc(-c2ccccc2)cc(OC(C)=O)c1OC(C)=O | > 512 | > 512 | > 512 | > 512 | – |
| COc1cc(-c2ccc(CCC#N)cc2)cc(O)c1O | 512 (≈ 1900 µM) | 512 (≈ 1900 µM) | 512 (≈ 1900 µM) | 512 (≈ 1900 µM) | – |
| COc1cc(-c2ccccc2)cc(OC(=O)C2CCCCC2)c1OC(=O)C1CCCCC1 | > 512 | > 512 | > 512 | > 512 | – |
| CCCCC(=O)c1ccc(-c2cc(O)c(O)c(OC)c2)cc1 | 512 (≈ 1700 µM) | 512 (≈ 1700 µM) | 512 (≈ 1700 µM) | 512 (≈ 1700 µM) | – |
| COc1cc(-c2ccccc2)cc2c1OCO2 | > 512 | > 512 | 512 (≈ 2240 µM) | > 512 | – |
| Oc1cc(-c2ccccc2)cc(O)c1O | 256 (≈ 1270 µM) | > 512 | > 512 | > 512 | – |
| CCc1cccc(-c2cc(O)c(O)c(OC)c2)c1 | 32 (≈ 131 µM) | 128 (≈ 524 µM) | 128 (≈ 524 µM) | 128 (≈ 524 µM) | – |
| C=CCOc1cc(-c2ccccc2)cc(OC)c1OCC=C | > 512 | > 512 | > 512 | > 512 | – |
| CCCCCc1ccc(-c2ccc(O)c(O)c2O)cc1 | 4 (≈ 14.7 µM) | 4 (≈ 14.7 µM) | 32 (≈ 117 µM) | 8 (≈ 29.4 µM) | – |
| COc1cc(-c2ccccc2)cc(O)c1O | 64 (≈ 296 µM) | 128 (≈ 592 µM) | 128 (≈ 592 µM) | 128 (≈ 592 µM) | – |
| CCCc1ccc(-c2cc(O)c(O)c(OC)c2)cc1 | 4 (≈ 15.5 µM) | 8 (≈ 31 µM) | 64 (≈ 248 µM) | 16 (≈ 61.9 µM) | – |
| COc1cc(-c2cc(C(C)(C)C)cc(C(C)(C)C)c2)cc(O)c1O | > 512 | > 512 | 128 (≈ 390 µM) | > 512 | – |
| COc1cc(-c2ccc(CCBr)cc2)cc(O)c1O | 8 (≈ 24.8 µM) | 32 (≈ 99 µM) | 128 (≈ 396 µM) | 32 (≈ 99 µM) | – |
| COc1cc(-c2ccccc2)cc(OC)c1O [AUCUPARIN] | 64 (≈ 278 µM) | > 512 | > 512 | > 512 | – |
| COc1cc(-c2ccc(C(C)C)cc2)cc(O)c1O | 8 (≈ 31 µM) | 16 (≈ 61.9 µM) | 64 (≈ 248 µM) | 16 (≈ 61.9 µM) | – |
| CCCCCc1ccc(-c2c(O)cccc2O)cc1 | 8 (≈ 31.2 µM) | 32 (≈ 125 µM) | 32 (≈ 125 µM) | 32 (≈ 125 µM) | – |
| COc1cc(-c2ccc(C(C)(C)C)cc2)cc(O)c1O | 4 (≈ 14.7 µM) | 16 (≈ 58.7 µM) | 64 (≈ 235 µM) | 16 (≈ 58.7 µM) | – |
| CCc1ccccc1-c1cc(O)c(O)c(OC)c1 | 64 (≈ 262 µM) | 128 (≈ 524 µM) | 128 (≈ 524 µM) | 256 (≈ 1050 µM) | – |
| C[C@@H]1[C@H](O)[C@@H](C)/C=C/C=C/C=C/C=C/C=C/C=C/C=C/[C@H](O[C@@H]2O[C@H](C)[C@@H](O)[C@H](N)[C@@H]2O)C[C@@H]2O[C@](O)(C[C@@H](O)C[C@@H](O)[C@H](O)CC[C@@H](O)C[C@@H](O)CC(=O)O[C@H]1C)C[C@H](O)[C@H]2C(=O)O [AMPHOTERICIN B] | 0.25 (≈ 0.271 µM) | 0.5 (≈ 0.541 µM) | 2 (≈ 2.16 µM) | 0.5 (≈ 0.541 µM) | CC50 at 24 h [5]: 4.12 µg/mL (≈ 4.46 µM); Activity (Cryptococcus neoformans [7]): Dose-Dependent Effect; Activity (Cell membrane [10]): Active; Selectivity ratio [18]: 16; MFC (Cryptococcus neoformans [13]): 2 µg/mL (≈ 2.16 µM); Activity (Cell membrane [16]): Active; Activity (Cryptococcus neoformans [17]): 4 log10CFU/ml |
| CCc1ccc(-c2cc(O)c(O)c(OC)c2)cc1 | 8 (≈ 32.7 µM) | 32 (≈ 131 µM) | 64 (≈ 262 µM) | 32 (≈ 131 µM) | – |
| CCCCCCCCc1ccc(-c2cc(O)c(O)c(OC)c2)cc1 | 4 (≈ 12.2 µM) | > 512 | > 512 | > 512 | – |
| COc1cc(-c2ccccc2)cc(OC(=O)c2ccc(C)cc2)c1OC(=O)c1ccc(C)cc1 | > 512 | > 512 | > 512 | > 512 | – |
| COc1cc(-c2ccccc2F)cc(O)c1O | 128 (≈ 546 µM) | 128 (≈ 546 µM) | 64 (≈ 273 µM) | 128 (≈ 546 µM) | – |

Continued by falling MIC (Cryptococcus neoformans [1]), values first:

| MIC (Cryptococcus neoformans [1]) [µg/mL] | MIC (Candida tropicalis) [µg/mL] | MIC (Aspergillus fumigatus) [µg/mL] | MIC (Candida albicans) [µg/mL] | Structure (SMILES) | further results |
| --- | --- | --- | --- | --- | --- |
| 4 (≈ 12 µM) | 64 (≈ 191 µM) | > 512 | 512 (≈ 1530 µM) | CCCc1ccc(-c2ccc(-c3cc(O)c(O)c(OC)c3)cc2)cc1 | – |
| 2 (≈ 6.36 µM) | 512 (≈ 1630 µM) | > 512 | 512 (≈ 1630 µM) | CCCCCCCc1ccc(-c2cc(O)c(O)c(OC)c2)cc1 | – |
| 2 (≈ 6.98 µM) | 2 (≈ 6.98 µM) | 512 (≈ 1790 µM) | 8 (≈ 27.9 µM) | CCCCCc1ccc(-c2cc(O)c(O)c(OC)c2)cc1 | – |
| 2 (≈ 7.34 µM) | 4 (≈ 14.7 µM) | 32 (≈ 117 µM) | 16 (≈ 58.7 µM) | CCCCc1ccc(-c2cc(O)c(O)c(OC)c2)cc1 | – |
| 2 (≈ 6.7 µM) | 512 (≈ 1720 µM) | > 512 | 512 (≈ 1720 µM) | COc1cc(-c2ccc(C3CCCCC3)cc2)cc(O)c1O | – |
| 2 (≈ 7.8 µM) | 16 (≈ 62.4 µM) | 64 (≈ 250 µM) | 16 (≈ 62.4 µM) | CCCCCc1ccc(-c2cc(O)ccc2O)cc1 | – |
| 2 (≈ 7.34 µM) | 4 (≈ 14.7 µM) | 32 (≈ 117 µM) | 8 (≈ 29.4 µM) | CCCCCc1ccc(-c2cc(O)c(O)c(O)c2)cc1 | – |
| 2 (≈ 6.66 µM) | 8 (≈ 26.6 µM) | 512 (≈ 1700 µM) | > 512 | CCCCCCc1cccc(-c2cc(O)c(O)c(OC)c2)c1 | – |
| 1 (≈ 3.9 µM) | 2 (≈ 7.8 µM) | 16 (≈ 62.4 µM) | 4 (≈ 15.6 µM) | CCCCCc1ccc(-c2cccc(O)c2O)cc1 | – |
| 1 (≈ 3.33 µM) | 4 (≈ 13.3 µM) | > 512 | 512 (≈ 1700 µM) | CCCCCCc1ccc(-c2cc(O)c(O)c(OC)c2)cc1 | – |
| 0.5 (≈ 2.06 µM) | 4 (≈ 16.5 µM) | 16 (≈ 66 µM) | 4 (≈ 16.5 µM) | CCCCc1ccc(-c2ccc(O)c(O)c2)cc1 | – |
| 0.5 (≈ 1.95 µM) | 2 (≈ 7.8 µM) | 8 (≈ 31.2 µM) | 2 (≈ 7.8 µM) | CCCCCc1ccc(-c2ccc(O)cc2O)cc1 | Selectivity ratio (Cryptococcus neoformans [6]): 1; MFC (Cryptococcus neoformans [13]): 0.5 µg/mL (≈ 1.95 µM) |
| 0.25 (≈ 0.975 µM) | 1 (≈ 3.9 µM) | 8 (≈ 31.2 µM) | 2 (≈ 7.8 µM) | CCCCCc1ccc(-c2cc(O)cc(O)c2)cc1 | Activity (Cryptococcus neoformans [2]): Dose-Dependent Effect; Activity (Cryptococcus neoformans [3]): ~71.6%; Activity (Cryptococcus neoformans [4]): Dose-Dependent Effect; CC50 at 24 h [5]: 19.4 µg/mL (≈ 75.7 µM); Selectivity ratio (Cryptococcus neoformans [6]): 4; Activity (Cryptococcus neoformans [7]): Dose-Dependent Effect; Activity (Cryptococcus neoformans [8]): Active; Activity (Cryptococcus neoformans [9]): Active; Activity (Cell membrane [10]): Active; inhibition (INH) (Cryptococcus neoformans [11]): ~100%; Activity (Cell membrane [12]): Active; MFC (Cryptococcus neoformans [13]): 1 µg/mL (≈ 3.9 µM); Activity (Cell membrane [14]): Active; Activity (Cell membrane [15]): Active; Activity (Cell membrane [16]): Active; Activity (Cryptococcus neoformans [17]): 4 log10CFU/ml |
| 0.25 (≈ 0.975 µM) | 2 (≈ 7.8 µM) | 16 (≈ 62.4 µM) | 4 (≈ 15.6 µM) | CCCCCc1ccc(-c2ccc(O)c(O)c2)cc1 | Selectivity ratio (Cryptococcus neoformans [6]): 2; MFC (Cryptococcus neoformans [13]): 0.5 µg/mL (≈ 1.95 µM) |
